Legend:
[1] = tested on: human MCF-7 breast carcinoma cell line; assay: growth inhibition of MCF-7 cells, crystal-violet assay; format: cell-based; details: for IC50: crystal-violet assay; for active strength in comparison to reference compound epothilone D: statement on Table 1; for active strength in comparison to reference compound epothilone B: statement on Table 2
Description: (§1) a) IC50 values [nM] for the growth inhibition of human MCF-7 breast- and multi-drug-resistant NCl/ADR carcinoma cell lines of the epothilone derivatives with 13Z-olefins in a crystal-violet assay in comparison to epothilone D.
(§2) b) IC50 values [nM] for the growth inhibition of human MCF-7 breast- and multidrug-resistant NCl/ADR carcinoma cell lines of the epothilone derivatives with 13,14-α-epoxide in a crystal-violet assay in comparison to epothilone B.

[2] = tested on: multi-drug-resistant NCl/ADR carcinoma cell line; assay: growth inhibition of multi-drug-resistant NCl/ADR cells, crystal-violet assay; format: cell-based, human; details: for IC50: crystal-violet assay; for Selectivity = IC50 (NCl/ADR) : IC50 (MCF-7): ratio of IC50 NCl/ADR to MCF-7; for selectivity in multi-drug-resistant cell line NCl/ADR in comparison to epothilone B: statement on Table 2
Description: as §1, §2

[3] = Table 2, 13,14-α-epoxides, in comparison to epothilone B
[4] = Table 1, 13Z-olefins, in comparison to epothilone D

Row | Molecule | IC50 [1, 3] | IC50 [2, 3] | Selectivity = IC50 (NCl/ADR) : IC50 (MCF-7) ([2]; Table 2) | IC50 [1, 4] | IC50 [2, 4] | Selectivity = IC50 (NCl/ADR) : IC50 (MCF-7) ([2]; Table 1) | active strength in comparison to reference compound epothilone D [1] | other results
1 | C/C(=C\c1csc(C)n1)[C@@H]1C[C@@H]2O[C@]2(C)CCC[C@H](C)[C@H](O)[C@@H](C)C(=O)C(C)(C)[C@@H](O)CC(=O)O1 [Epothilone B, reference compound] | 0.6 nM | 3.5 nM | 5.8 |  |  |  |  | 
2 | C/C1=C/C[C@@H](/C(C)=C/c2csc(C)n2)OC(=O)C[C@H](O)C(C)(C)C(=O)[C@H](C)[C@@H](O)[C@@H](C)CCC1 [Epothilone D] |  |  |  | 23 nM | 50 nM | 2.2 |  | 
3 | C/C1=C/C[C@@H](/C(F)=C/c2csc(C)n2)OC(=O)C[C@H](O)C(C)(C)C(=O)[C@H](C)[C@@H](O)[C@@H](C)CCC1 [Example 1, (4S,7R,8S,9S,13(Z),16S(Z))-4,8-Dihydroxy-16-(1-fluoro-2-(2-methyl-4-thiazolyl)ethenyl)-1-oxa-5,5,7,9,13-pentamethyl-cyclohexadec-13-ene-2,6-dione] |  |  |  | 4.3 nM | 12 nM | 2.8 | significantly higher active strength | 
4 | Cc1nc(/C=C(\F)[C@@H]2C[C@@H]3O[C@]3(C)CCC[C@H](C)[C@H](O)[C@@H](C)C(=O)C(C)(C)[C@@H](O)CC(=O)O2)cs1 [Example 3B, (1S,3S(Z),7S,10R,11S,12S,16R)-7,11-dihydroxy-3-(1-fluoro-2-(2-methyl-4-thiazolyl)ethenyl)-8,8,10,12,16-pentamethyl-4,17-dioxabicyclo[14.1.0]heptadecane-5,9-dione] | 0.3 nM | 1.4 nM | 4.7 |  |  |  |  | active strength in comparison to reference compound epothilone B [1]: comparable or significantly higher active strength; selectivity in multi-drug-resistant cell line NCl/ADR in comparison to epothilone B [2]: improved selectivity
5 | C/C1=C/C[C@@H](/C(Cl)=C/c2csc(C)n2)OC(=O)C[C@H](O)C(C)(C)C(=O)[C@H](C)[C@@H](O)[C@@H](C)CCC1 [Example 5, (4S,7R,8S,9S,13(Z),16S(Z))-4,8-Dihydroxy-16-(1-chloro-2-(2-methyl-4-thiazolyl)ethenyl)-1-oxa-5,5,7,9,13-pentamethyl-cyclohexadec-13-ene-2,6-dione] |  |  |  | 5.1 nM | 37 nM | 7.3 |  | 
6 | Cc1nc(/C=C(\Cl)[C@@H]2C[C@@H]3O[C@]3(C)CCC[C@H](C)[C@H](O)[C@@H](C)C(=O)C(C)(C)[C@@H](O)CC(=O)O2)cs1 [Example 7A, (1S,3S(Z),7S,10R,11S,12S,16R)-7,11-Dihydroxy-3-(1-chloro-2-(2-methyl-4-thiazolyl)ethenyl)-8,8,10,12,16-pentamethyl-4,17-dioxabicyclo[14.1.0]heptadecane-5,9-dione] | 0.8 nM | 6 nM | 7.5 |  |  |  |  | 
7 | C/C1=C/C[C@@H](/C(F)=C/c2csc(C)n2)OC(=O)C[C@H](O)C2(CCC2)C(=O)[C@H](C)[C@@H](O)[C@@H](C)CCC1 [Example 9] |  |  |  | 5 nM | 10 nM | 2.0 | significantly higher active strength | 
8 | Cc1nc(C=C(F)C2CC3OC3(C)CCCC(C)C(O)C(C)C(=O)C3(CCC3)C(O)CC(=O)O2)cs1 [Example 10A, (1S,3S(Z),7S,10R,11S,12S,16R)-7,11-Dihydroxy-3-((1-fluoro)-2-(2-methyl-4-thiazolyl)ethenyl)-10,12,16-trimethyl-8,8-(1,3-trimethylene)-4,17-dioxabicyclo[14.1.0]hepta-deca-5,9-dione] | 2.1 nM | 3.9 nM | 1.9 |  |  |  |  | selectivity in multi-drug-resistant cell line NCl/ADR in comparison to epothilone B [2]: improved selectivity
9 | CC[C@H]1C(=O)C2(CCC2)[C@@H](O)CC(=O)O[C@H](/C(F)=C/c2csc(C)n2)C[C@@H]2O[C@]2(C)CCC[C@H](C)[C@@H]1O [Example 14A, (1S,3S(Z),7S,10R,11S,12S,16R)-7,11-Dihydroxy-12,16-dimethyl-10-ethyl-3-(1-fluoro-2-(2-methyl-4-thiazolyl)ethenyl) 8,8-(1,3-trimethylene)-4,17-dioxabicyclo[14.1.0]hepta-decane-5,9-dione] | 0.5 nM | 3.5 nM | 7.0 |  |  |  |  | active strength in comparison to reference compound epothilone B [1]: comparable or significantly higher active strength
10 | CC[C@H]1C(=O)C(C)(C)[C@@H](O)CC(=O)O[C@H](/C(F)=C/c2ccccn2)C/C=C(/C)CCC[C@H](C)[C@@H]1O [Example 17, (4S,7R,8S,9S,13Z,16S(Z))-4,8-Dihydroxy-16-(1-fluoro-2-(2-pyridyl)ethenyl)-7-ethyl-1-oxa-5,5,9,13-tetramethyl-cyclohexadec-13-ene-2,6-dione] |  |  |  | 6.1 nM | 33 nM | 5.4 | significantly higher active strength | 
11 | CC[C@H]1C(=O)C(C)(C)[C@@H](O)CC(=O)O[C@H](/C(F)=C/c2ccccn2)C[C@@H]2O[C@]2(C)CCC[C@H](C)[C@@H]1O [Example 20A, (1S,3S(Z),7S,10R,11S,12S,16R)-7,11-Dihydroxy-10-ethyl-3-(1-fluoro-2-(2-pyridyl)ethenyl)-8,8,12,16-tetramethyl-4,17-dioxabicyclo[14.1.0]heptadecane-5,9-dione] | 0.6 nM | 4.6 nM | 7.6 |  |  |  |  | active strength in comparison to reference compound epothilone B [1]: comparable or significantly higher active strength
12 | CC(=O)O[C@H]1C(=O)[C@@]2(C)[C@H]([C@H](OC(=O)c3ccccc3)[C@]3(O)C[C@H](OC(=O)[C@H](O)[C@@H](NC(=O)c4ccccc4)c4ccccc4)C(C)=C1C3(C)C)[C@]1(OC(C)=O)CO[C@@H]1C[C@@H]2O [Taxol, reference compound] |  | > 100 nM | >>25 |  |  | >>25 |  | IC50 ([1]; Homo sapiens, MCF7, Table 1, 13Z-olefins, in comparison to epothilone D): 4 nM; IC50 ([2]; Homo sapiens, Table 1, 13Z-olefins, in comparison to epothilone D): > 100 nM
13 | (4S,7R,8S,9S,13(Z),16S(Z)-4,8-Dihydroxy-9,13-diethyl-7-ethyl-16-(1-fluoro-2-(2-methyl-4-thiazolyl)ethenyl)-1-oxa-5,5-(1,3-trimethylene)cyclohexadec-13-ene-2,6-dione [Example 13] |  |  |  | 5.8 nM | 28 nM | 4.8 | significantly higher active strength | 

From patent US6610736B1, “16-Halogen-epothilone derivatives, method for producing them and their pharmaceutical use” (Schering AG, priority 1999, dated 2003)
